This is an account of results in patent publication US8101606B2, “Neurofibromin pathway modulators” (Washington University, priority 2007, dated 2012).

Experiment [1] relates to mTOR pathway activation (S6 phosphorylation). The experiment can be described thus: S6 phosphorylation (mTOR pathway activation) in neurofibromin 1 deficient astrocytes, phospho-specific antibodies. The format is cell-based, mouse. The following applies: Nf1-/- astrocytes; concentration not given. An excerpt:
Evidence exists for direct activation of mTOR signaling by Akt as well as indirect activation of mTOR by Akt through the tuberous sclerosis complex (TSC)/Rheb pathway. Studies have shown that the mTOR activation resulting from neurofibromin loss in astrocytes can be reversed by restoring NF1-GAP activity (NF1 GRD), blocking K-RAS activity (K-RASN17), or inhibiting PI-3K activation of Akt.

The test system of experiment [2] is S6 activation. The experiment is described as follows: S6 activation in Tsc1-deficient astrocytes. It is filed as cell-based. An excerpt:
FIG. 8 depicts images showing that Rheb pharmacologic inhibition blocks mTOR pathway activation in Tsc1-deficient, but not neurofibromin 1 deficient, astrocytes.
In each case, the abnormal Tsc1^−/− and neurofibromin 1^−/− astrocyte phenotypes were reversed by mTOR inhibition (rapamycin treatment). […] These studies provide preliminary evidence for a TSC/Rheb-independent mechanism.

SMILES strings stand for the structures. Entries after “also recorded” stand apart in the source; their conditions may differ.

Regarding `CSCC[C@H](NC(=O)c1ccc(NC[C@@H](N)CS)cc1-c1ccccc1)C(=O)O` [FTI-276], the “S6 activation / phosphorylation (mTOR pathway activation)” value in experiment [1] is “did not reduce S6 hyperactivation; also recorded: no effect on S6 activity”. Besides, the S6 activation entry in experiment [2] was “effectively blocks S6 activation; also recorded: reduced S6 activation”.
